Results taken from US10428104B2, “Substituted nucleoside derivatives useful as anticancer agents” (Pfizer Inc., priority 2015, dated 2019).

How the values were obtained:
[1] = target: PRMT5/MEP50 protein complex (Homo sapiens (Human), UniProt O14744); experiment: PRMT5 biochemical assay (3H-SAM methylation of H4(1-21) peptide, filter plate scintillation counting); conditions: PRMT5 enzyme inhibition; 10 nM PRMT5/MEP50 complex, 200 nM H4(1-21) peptide, 1 uM SAM, 25 minute incubation at room temperature
Sequence of PRMT5/MEP50 protein complex (O14744 other isoform, or with tags, fused parts or gaps): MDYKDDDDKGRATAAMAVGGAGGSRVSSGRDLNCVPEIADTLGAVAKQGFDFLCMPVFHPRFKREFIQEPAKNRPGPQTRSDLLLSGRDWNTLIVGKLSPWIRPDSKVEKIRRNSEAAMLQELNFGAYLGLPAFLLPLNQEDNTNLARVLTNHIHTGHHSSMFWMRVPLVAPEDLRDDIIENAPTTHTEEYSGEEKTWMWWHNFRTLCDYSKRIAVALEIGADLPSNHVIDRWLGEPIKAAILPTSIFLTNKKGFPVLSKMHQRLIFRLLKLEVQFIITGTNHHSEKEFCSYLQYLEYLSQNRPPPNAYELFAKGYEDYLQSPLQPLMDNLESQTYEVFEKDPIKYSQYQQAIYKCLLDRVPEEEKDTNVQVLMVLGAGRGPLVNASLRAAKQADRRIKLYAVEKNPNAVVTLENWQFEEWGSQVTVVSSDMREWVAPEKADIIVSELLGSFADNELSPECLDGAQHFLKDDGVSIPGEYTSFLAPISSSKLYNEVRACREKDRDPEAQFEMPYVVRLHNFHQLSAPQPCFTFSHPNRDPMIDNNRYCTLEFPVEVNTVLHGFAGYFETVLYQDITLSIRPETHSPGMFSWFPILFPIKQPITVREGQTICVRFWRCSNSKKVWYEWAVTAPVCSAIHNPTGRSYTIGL
Sequence of PRMT5/MEP50 protein complex (Q9BQA1 whole entry partner): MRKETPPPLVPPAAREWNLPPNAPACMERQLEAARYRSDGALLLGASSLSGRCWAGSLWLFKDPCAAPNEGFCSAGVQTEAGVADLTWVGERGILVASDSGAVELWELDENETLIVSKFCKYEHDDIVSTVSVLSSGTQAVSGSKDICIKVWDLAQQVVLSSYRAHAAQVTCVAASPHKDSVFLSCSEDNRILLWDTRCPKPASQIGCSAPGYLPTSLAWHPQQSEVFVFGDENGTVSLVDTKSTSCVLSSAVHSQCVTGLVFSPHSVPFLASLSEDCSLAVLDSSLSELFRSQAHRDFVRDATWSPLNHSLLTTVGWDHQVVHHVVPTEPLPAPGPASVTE
In short: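 Flag-PRMT5/MEP50 was co-expressed in Sf21 cells and Flag-affinity purified. Reactions used 10 nM complex, 200 nM H4(1-21) peptide and 1 uM 3H-SAM (final) in 50 mM Tris pH 8.5, 50 mM NaCl, 5 mM MgCl2, 1 mM EDTA and 1 mM TCEP, run 25 min at room temperature. Reactions were TCA-stopped, filter-captured and scintillation-counted; IC50 came from a 4-parameter fit.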

[2] = tested on: A549 lung adenocarcinoma cells; experiment: A549 proliferation assay (Cell Titer Glo, 7 days); type: cell-based; conditions: Homo sapiens, 168 h, 7 days with compound, cell viability by Cell Titer Glo (ATP)
Method: A549 lung adenocarcinoma cells (American Type CuIture Collection) were maintained in DMEM growth media (Life Technologies) supplemented with 10% v/v heat inactivated fetal bovine serum (Sigma) and cultured at 37° C., 5% CO2. Exponentially growing A549 cells were plated in 96-well black tissue culture treated plates (Corning) at a density of 2500 cells/ml in a volume of 100 μl culture media and allowed to adhere overnight at 37° C., 5% CO2. The following day, compound plates were prepared by making nine-point 3.3-fold dilutions in DMSO with a top concentration of 10 mM. Compounds were further diluted in culture media and 11 μl was added to the cells (final top assay concentration was 10 μM and DMSO was […]). Cells were incubated with compound at 37° C., 5% CO2 for 7 days with media and compound replacement on day 4. Cell viability was assayed on Day 7 by adding 100 μl Cell Titer Glo (Promega) reagent to the plate to measure the amount of ATP present in the cells. Luminescence was read using the Envision 2104 Multilabel Reader (Perkin Elmer).
Results for the A549 proliferation assay of examples are summarized in Table 2, shown as IC50 values in μM.

Cc1ncnc2c1ccn2[C@@H]1O[C@H]([C@@H](O)c2cc(F)cc(F)c2)[C@@H](O)[C@H]1O [Example 37, (2R,3S,4R,5R)-2-((S)-(3,5-difluorophenyl)(hydroxy)methyl)-5-(4-methyl-7H-pyrrolo[2,3-d]pyrimidin-7-yl)tetrahydrofuran-3,4-diol]
IC50 [1]: 2640 nM | IC50 [2]: 3000 nM

Cc1ncnc2c1ccn2[C@@H]1O[C@H]([C@H](F)c2ccc(F)c(F)c2)[C@@H](O)[C@H]1O [Example 92, (2S,3S,4R,5R)-2-((R)-(3,4-difluorophenyl)fluoromethyl)-5-(4-methyl-7H-pyrrolo[2,3-d]pyrimidin-7-yl)tetrahydrofuran-3,4-diol]
IC50 [1]: 14 nM | IC50 [2]: 257 nM

Cc1ncnc2c1ccn2[C@@H]1O[C@H]([C@H](O)c2cccc(F)c2)[C@@H](O)[C@H]1O [Example 34, (2R,3S,4R,5R)-2-((R)-(3-fluorophenyl)(hydroxy)methyl)-5-(4-methyl-7H-pyrrolo[2,3-d]pyrimidin-7-yl)tetrahydrofuran-3,4-diol]
IC50 [1]: 6 nM | IC50 [2]: 26 nM

CC[C@@H](O)[C@H]1O[C@@H](n2ccc3c(C)ncnc32)[C@H](O)[C@@H]1O [Example 40, (2R,3S,4R,5R)-2-((R)-1-hydroxypropyl)-5-(4-methyl-7H-pyrrolo[2,3-d]pyrimidin-7-yl)tetrahydrofuran-3,4-diol]
IC50 [1]: 114 nM | IC50 [2]: 2700 nM

Nc1ncnc2c1c(I)cn2[C@@H]1O[C@H]([C@H](O)c2ccc(F)c(F)c2)[C@@H](O)[C@H]1O [Example 119, (2R,3R,4S,5R)-2-(4-amino-5-iodo-7H-pyrrolo[2,3-d]pyrimidin-7-yl)-5-((R)-(3,4-difluorophenyl)(hydroxy)methyl)tetrahydrofuran-3,4-diol]
IC50 [1]: 7 nM | IC50 [2]: 322 nM

Cc1cc(C(O)[C@H]2O[C@@H](n3ccc4c(C)ncnc43)[C@H](O)[C@@H]2O)ccn1 (stereo in doubt) [Example 111, (2R,3S,4R,5R)-2-((R)-hydroxy(2-methylpyridin-4-yl)methyl)-5-(4-methyl-7H-pyrrolo[2,3-d]pyrimidin-7-yl)tetrahydrofuran-3,4-diol]
IC50 [1]: 12 nM | IC50 [2]: 148 nM

Nc1ncnc2c1ncn2[C@@H]1O[C@H]([C@H](O)c2ccc(F)c(F)c2)[C@@H](O)[C@H]1O [Example 84, (2R,3R,4S,5R)-2-(6-amino-9H-purin-9-yl)-5-((R)-(3,4-difluorophenyl)(hydroxy)methyl)tetrahydrofuran-3,4-diol]
IC50 [2]: 48 nM

Cc1ncnc2c1ccn2[C@@H]1O[C@H]([C@H](O)c2cccc3c2CNCC3)[C@@H](O)[C@H]1O [Example 112, (2R,3S,4R,5R)-2-((R)-hydroxy(1,2,3,4-tetrahydroisoquinolin-8-yl)methyl)-5-(4-methyl-7H-pyrrolo[2,3-d]pyrimidin-7-yl)tetrahydrofuran-3,4-diol]
IC50 [1]: 1 nM | IC50 [2]: 350 nM

Nc1ncnc2c1c(F)cn2[C@@H]1O[C@H]([C@H](O)c2ccc(F)cc2)[C@@H](O)[C@H]1O [Example 61, (2R,3R,4S,5R)-2-(4-amino-5-fluoro-7H-pyrrolo[2,3-d]pyrimidin-7-yl)-5-((R)-(4-fluorophenyl)(hydroxy)methyl)tetrahydrofuran-3,4-diol]
IC50 [1]: 3 nM | IC50 [2]: 14 nM

Cc1ncnc2c1ccn2[C@@H]1O[C@H]([C@H](O)c2cccc(Cl)c2)[C@@H](O)[C@H]1O [Example 32, (2R,3S,4R,5R)-2-((R)-(3-chlorophenyl)(hydroxy)methyl)-5-(4-methyl-7H-pyrrolo[2,3-d]pyrimidin-7-yl)tetrahydrofuran-3,4-diol]
IC50 [1]: 5 nM | IC50 [2]: 25 nM

Cc1ccc(C(O)[C@H]2O[C@@H](n3ccc4c(C)ncnc43)[C@H](O)[C@@H]2O)cn1 (stereo in doubt) [Example 110, (2R,3S,4R,5R)-2-((R)-hydroxy(6-methylpyridin-3-yl)methyl)-5-(4-methyl-7H-pyrrolo[2,3-d]pyrimidin-7-yl)tetrahydrofuran-3,4-diol]
IC50 [1]: 24 nM | IC50 [2]: 1730 nM

CCC[C@@H](O)[C@H]1O[C@@H](n2ccc3c(C)nc(N)nc32)[C@H](O)[C@@H]1O [Example 63, (2R,3R,4S,5R)-2-(2-amino-4-methyl-7H-pyrrolo[2,3-d]pyrimidin-7-yl)-5-((R)-1-hydroxybutyl)tetrahydrofuran-3,4-diol]
IC50 [1]: 38 nM | IC50 [2]: 3400 nM

Nc1ncnc2c1ccn2[C@@H]1O[C@H]([C@H](O)c2ccc(Cl)c(F)c2)[C@@H](O)[C@H]1O [Example 88, (2R,3R,4S,5R)-2-(4-amino-7H-pyrrolo[2,3-d]pyrimidin-7-yl)-5-((R)-(4-chloro-3-fluorophenyl)(hydroxy)methyl)tetrahydrofuran-3,4-diol]
IC50 [1]: 1 nM | IC50 [2]: 3 nM

Cc1ncnc2c1ccn2[C@@H]1O[C@H]([C@@H](O)c2ccccc2)[C@@H](O)[C@H]1O [Example 27, (2R,3S,4R,5R)-2-((S)-hydroxy(phenyl)methyl)-5-(4-methyl-7H-pyrrolo[2,3-d]pyrimidin-7-yl)tetrahydrofuran-3,4-diol]
IC50 [1]: 5170 nM | IC50 [2]: 8700 nM

Cc1ncnc2c1ccn2[C@@H]1O[C@H]([C@H](O)c2ccc(F)c(F)c2)[C@@H](O)[C@H]1O [Example 9, (2R,3S,4R,5R)-2-((R)-(3,4-difluorophenyl)(hydroxy)methyl)-5-(4-methyl-7H-pyrrolo[2,3-d]pyrimidin-7-yl)tetrahydrofuran-3,4-diol]
IC50 [2]: 16 nM

Nc1ncnc2c1c(F)cn2[C@@H]1O[C@H]([C@H](O)c2ccc(F)c(F)c2)[C@@H](O)[C@H]1O [Example 60, (2R,3R,4S,5R)-2-(4-amino-5-fluoro-7H-pyrrolo[2,3-d]pyrimidin-7-yl)-5-((R)-(3,4-difluorophenyl)(hydroxy)methyl)tetrahydrofuran-3,4-diol]
IC50 [1]: 2 nM | IC50 [2]: 10 nM

Cc1ncnc2c1ccn2[C@@H]1O[C@H]([C@H](N)c2ccc(F)c(F)c2)[C@@H](O)[C@H]1O [Example 94, (2R,3S,4R,5R)-2-((R)-amino(3,4-difluorophenyl)methyl)-5-(4-methyl-7H-pyrrolo[2,3-d]pyrimidin-7-yl)tetrahydrofuran-3,4-diol]
IC50 [2]: 1780 nM

Cc1ncnc2c1ccn2[C@@H]1O[C@H]([C@H](O)c2ccc(F)cc2)[C@@H](O)[C@H]1O [Example 38, (2R,3S,4R,5R)-2-((R)-(4-fluorophenyl)(hydroxy)methyl)-5-(4-methyl-7H-pyrrolo[2,3-d]pyrimidin-7-yl)tetrahydrofuran-3,4-diol]
IC50 [1]: 5 nM | IC50 [2]: 42 nM

Cc1ncnc2c1ccn2[C@@H]1O[C@H]([C@H](O)c2ccc(F)c(C#N)c2)[C@@H](O)[C@H]1O [Example 13]
IC50 [1]: 4 nM | IC50 [2]: 112 nM

N[C@H](c1ccc(Cl)c(F)c1)[C@H]1O[C@@H](n2ccc3cncnc32)[C@H](O)[C@@H]1O [Example 116, (2R,3S,4R,5R)-2-((R)-amino(4-chloro-3-fluorophenyl)methyl)-5-(7H-pyrrolo[2,3-d]pyrimidin-7-yl)tetrahydrofuran-3,4-diol]
IC50 [1]: 5 nM | IC50 [2]: 1640 nM

Nc1ncnc2c1ccn2[C@@H]1O[C@H]([C@H](O)c2ccc(Cl)cc2)[C@@H](O)[C@H]1O [Example 87, (2R,3R,4S,5R)-2-(4-amino-7H-pyrrolo[2,3-d]pyrimidin-7-yl)-5-((R)-(4-chlorophenyl)(hydroxy)methyl)tetrahydrofuran-3,4-diol]
IC50 [1]: 1 nM | IC50 [2]: 5 nM

Cc1ncnc2c1ccn2[C@@H]1O[C@H]([C@@H](O)c2cccc(Cl)c2)[C@@H](O)[C@H]1O [Example 33, (2R,3S,4R,5R)-2-((S)-(3-chlorophenyl)(hydroxy)methyl)-5-(4-methyl-7H-pyrrolo[2,3-d]pyrimidin-7-yl)tetrahydrofuran-3,4-diol]
IC50 [1]: 2640 nM | IC50 [2]: 4400 nM

Cc1ncnc2c1ccn2[C@@H]1O[C@H]([C@H](O)c2cnn(C)c2)[C@@H](O)[C@H]1O [Example 50, (2R,3S,4R,5R)-2-((R)-hydroxy(1-methyl-1H-pyrazol-4-yl)methyl)-5-(4-methyl-7H-pyrrolo[2,3-d]pyrimidin-7-yl)tetrahydrofuran-3,4-diol]
IC50 [2]: 3200 nM

O[C@@H]1[C@H](O)[C@@H]([C@H](O)c2ccc(F)c(F)c2)O[C@H]1n1ccc2cncnc21 [Example 117, (2R,3S,4R,5R)-2-((R)-(3,4-difluorophenyl)(hydroxy)methyl)-5-(7H-pyrrolo[2,3-d]pyrimidin-7-yl)tetrahydrofuran-3,4-diol]
IC50 [1]: 5 nM | IC50 [2]: 92 nM

Cc1ncnc2c1ccn2[C@@H]1O[C@H]([C@@H](C)O)[C@@H](O)[C@H]1O [Example 44, (2R,3S,4R,5R)-2-((R)-1-hydroxyethyl)-5-(4-methyl-7H-pyrrolo[2,3-d]pyrimidin-7-yl)tetrahydrofuran-3,4-diol]
IC50 [1]: 52 nM | IC50 [2]: 3400 nM

Cc1nc(N)nc2c1ccn2[C@@H]1O[C@@H](c2ccccc2)[C@@H](O)[C@H]1O [Example 68, (2R,3R,4S,5S)-2-(2-amino-4-methyl-7H-pyrrolo[2,3-d]pyrimidin-7-yl)-5-phenyltetrahydrofuran-3,4-diol]
IC50 [1]: 5500 nM
